Assay results: PubChem BioAssay AID1919002 (Molecular Pharmacology Branch, DTP, NCI, 2023)
“And” between values parts separate entries of the source, which are not always exact repeats. Equal values may be shown once. Values belong to the compound of their own block, whether it stands above or below them.

System: 743489-274-T-PDC complex spheroid growth
Experiment: Anticancer human tumor 743489-274-T-PDC patient-derived renal cell carcinoma cell line growth inhibition [AhR]
Conditions: for viability, T/C: stronger effect = lower value
Text: Multicellular complex tumor spheroid response to aryl hydrocarbon receptor antagonists in combination with a variety of drugs and investigational agents in selected tumor cell lines
The current study was undertaken to assess response to aryl hydrocarbon receptor antagonists in combination with standard-of-care drugs and investigational agents in solid tumor complex spheroid models. Complex spheroids include a stromal component modeled by human endothelial cells (HUVEC) and fibroblasts modeled by human mesenchymal stem cells (MSCs). The concentration ranges selected for each drug and investigational agent were based upon clinically achievable concentrations if the clinical Cmax of the agent was known.
Compounds. The drugs and investigational agents: BAY 2416964 (NSC825713), GNF351 (NSC835774), CH-223191 (NSC835775), CPI-455 (NSC825282), aza-TdCyd (NSC777586), decitabine (NSC127716), belinostat (NSC758774), entinostat (NSC756642), pevonedistat (NSC761192), tazemetostat (NSC777109), talazoparib (NSC765396), olaparib (NSC753686), selinexor (NSC780203), nedisertib (M3814, NSC802822), bortezomib (NSC756655), venetoclax (NSC766270), doxorubicin (NSC123127), elimusertib (BAY189344, NSC800525), ceralasertib (AZD6738, NSC777638), TAK-243 (NSC785004), alisertib (NSC759677), etoposide (NSC141540), topotecan (NSC609699), eribulin (NSC707389), gemcitabine (NSC613327), carboplatin (NSC241240), cisplatin (NSC119875), and SN-38 (NSC673596) were obtained from the National Cancer Institute (NCI) Developmental Therapeutics Program Chemical Repository (32). The FDA-approved anticancer drug set is available from the Developmental Therapeutics Program at https://dtp.cancer.gov/organization/dscb/obtaining/available plates.htm. […] The stock solutions were prepared in dimethyl sulfoxide (DMSO, Sigma-Aldrich, St. Louis, MO, cat. D2650), except for the platinum compounds which were prepared in saline (Quality Biological, Gaithersburg, MD, cat. 114-055-101), at 800-fold the tested concentration and stored at -70 degrees C prior to their use. All drugs and investigational agents were tested over a range starting from a high concentration at or near the clinical Cmax and decreasing in half-log increments. If the clinical Cmax for an agent had not been determined, the highest concentration tested was 10 microM (Table 1).
Cell Culture. All cells were maintained in an incubator at 37 degrees C and 5% CO2 with 95% humidity. The PDC lines were cultured according to standard operating procedures established by the NCI PDMR (https://pdmr.cancer.gov). Briefly, all PDCs were thawed and cultured in Matrigel-coated flasks prepared with a working solution of 1X Ham's F-12 nutrient mix, without supplementation (Invitrogen, Waltham, MA, cat. 11765054), 100 U/mL penicillin-streptomycin (Invitrogen, cat. 15140122), and 2.5% Matrigel (Corning Inc., Corning, NY, cat. 354248) for the first three passages. All PDCs were cultured in complete DMEM/F-12 media containing advanced DMEM/F-12 (Invitrogen, cat. 12634028), 4.9% defined fetal bovine serum, heat inactivated (HyClone Laboratories Inc., Logan, UT, cat. SH30070.03HI), 389 ng/mL hydrocortisone (Sigma-Aldrich, cat. H4001), 9.7 ng/mL human EGF recombinant protein (Invitrogen, cat. PHG0313), 23.4 microg/mL adenine (Sigma-Aldrich, cat. A2786), 97.3 U/mL penicillin-streptomycin (Invitrogen, cat. 15140122), 1.9 mM L-glutamine (Invitrogen, cat. 25030081), and 9.7 microM Y-27632 dihydrochloride (Tocris Bioscience, Bristol, United Kingdom, cat. 1254). The PDCs were cultured in complete DMEM/F12 media without 10 microM Y-27632 dihydrochloride for at least two passages prior to the screen. The established cell lines NCI-H1341 and […] were cultured in DMEM/F-12, HEPES (Invitrogen, cat. 11330032), 5% defined fetal bovine serum (HyClone Laboratories Inc., cat. SH30070.03), ITS premix universal culture supplement [insulin (5 microg/mL), transferrin (5 microg/mL), and selenious acid (5 ng/mL)] […]

[1] = curve of first compound, second compound 0.1 µM
[2] = curve of first compound, second compound 0.316 µM
[3] = curve of first compound, second compound 1 µM
[4] = curve of first compound, second compound 3.16 µM
[5] = curve of first compound, second compound 10 µM
[6] = second compound 0.1 µM, first compound 0.0316 µM
[7] = second compound 0.1 µM, first compound 0.1 µM
[8] = second compound 0.1 µM, first compound 0.316 µM
[9] = second compound 0.1 µM, first compound 1 µM
[10] = second compound 0.1 µM, first compound 3.16 µM
[11] = second compound 0.1 µM, first compound 10 µM
[12] = second compound 0.316 µM, first compound 0.0316 µM
[13] = second compound 0.316 µM, first compound 0.1 µM
[14] = second compound 0.316 µM, first compound 0.316 µM
[15] = second compound 0.316 µM, first compound 1 µM
[16] = second compound 0.316 µM, first compound 3.16 µM
[17] = second compound 0.316 µM, first compound 10 µM
[18] = second compound 1 µM, first compound 0.0316 µM
[19] = second compound 1 µM, first compound 0.1 µM
[20] = second compound 1 µM, first compound 0.316 µM
[21] = second compound 1 µM, first compound 1 µM
[22] = second compound 1 µM, first compound 3.16 µM
[23] = second compound 1 µM, first compound 10 µM
[24] = second compound 3.16 µM, first compound 0.0316 µM
[25] = second compound 3.16 µM, first compound 0.1 µM
[26] = second compound 3.16 µM, first compound 0.316 µM
[27] = second compound 3.16 µM, first compound 1 µM
[28] = second compound 3.16 µM, first compound 3.16 µM
[29] = second compound 3.16 µM, first compound 10 µM
[30] = second compound 10 µM, first compound 0.0316 µM
[31] = second compound 10 µM, first compound 0.1 µM
[32] = second compound 10 µM, first compound 0.316 µM
[33] = second compound 10 µM, first compound 1 µM
[34] = second compound 10 µM, first compound 3.16 µM
[35] = second compound 10 µM, first compound 10 µM
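Also: spheroids exposed to agents for 7 days before readout.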
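For viability, T/C in this document: 100% = DMSO vehicle control wells.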

IC50 [1]: 8.45 µM
IC50 [2]: 9.32 µM
IC50 [3]: 8.98 µM
IC50 [4]: 6.53 µM
IC50 [5]: 3.24 µM
SMILES: COc1cccc2c1C(=O)c1c(O)c3c(c(O)c1C2=O)CC(O)(C(=O)CO)CC3OC1CC(N)C(O)C(C)O1 (stereo not drawn) + CC(CO)NC(=O)c1cc(-c2ccc(Cl)cc2)nn(-c2cnn(C)c2)c1=O
viability, T/C [6]: 101%
viability, T/C [7]: 106%
viability, T/C [8]: 107%
viability, T/C [9]: 96.3%
viability, T/C [10]: 108%
viability, T/C [11]: 40.6%
viability, T/C [12]: 93.7%
viability, T/C [13]: 106%
viability, T/C [14]: 108%
viability, T/C [15]: 93.5%
viability, T/C [16]: 102%
viability, T/C [17]: 46.7%
viability, T/C [18]: 110%
viability, T/C [19]: 95%
viability, T/C [20]: 107%
viability, T/C [21]: 97%
viability, T/C [22]: 93.2%
viability, T/C [23]: 45.5%
viability, T/C [24]: 88%
viability, T/C [25]: 91.6%
viability, T/C [26]: 108%
viability, T/C [27]: 96.7%
viability, T/C [28]: 88.2%
viability, T/C [29]: 27.4%
viability, T/C [30]: 92%
viability, T/C [31]: 103%
viability, T/C [32]: 101%
viability, T/C [33]: 89.7%
viability, T/C [34]: 51.2%
viability, T/C [35]: 0.36%

IC50 (curve of compound): 0.0513 µM and 0.0249 µM and 0.019 µM
SMILES: CC(C)CC(NC(=O)C(Cc1ccccc1)NC(=O)c1cnccn1)B(O)O (stereo not drawn)
viability, T/C (compound 0.000949 µM): 99.1% and 101% and 98%
viability, T/C (compound 0.003 µM): 95.6% and 109% and 101%
viability, T/C (compound 0.00949 µM): 106% and 110% and 101%
viability, T/C (compound 0.03 µM): 82.7% and 39.1% and 17.3%
viability, T/C (compound 0.0949 µM): 12.9% and 18.7% and 11.8%
viability, T/C (compound 0.3 µM): 11.7% and 8.88% and 4.65%

IC50 (curve of compound): > 10 µM
SMILES: CC1(C)CCC(CN2CCN(c3ccc(C(=O)NS(=O)(=O)c4ccc(NCC5CCOCC5)c([N+](=O)[O-])c4)c(Oc4cnc5[nH]ccc5c4)c3)CC2)=C(c2ccc(Cl)cc2)C1
viability, T/C (compound 0.0316 µM): 109% and 96.8% and 101%
viability, T/C (compound 0.1 µM): 112% and 106% and 103%
viability, T/C (compound 0.316 µM): 112% (2×) and 103%
viability, T/C (compound 1 µM): 109% and 106% (2×)
viability, T/C (compound 3.16 µM): 120% and 117% and 108%
viability, T/C (compound 10 µM): 117% and 96.9% and 109%

IC50 [1]: > 10 µM
IC50 [2]: > 10 µM
IC50 [3]: > 10 µM
IC50 [4]: > 10 µM
IC50 [5]: > 10 µM
SMILES: NS(=O)(=O)OCC1CC(n2ccc3c(NC4CCc5ccccc54)ncnc32)CC1O (stereo not drawn) + Cc1cncc(-c2nc(NCCc3c[nH]c4ccccc34)c3ncn(C(C)C)c3n2)c1
viability, T/C [6]: 105%
viability, T/C [7]: 98.2%
viability, T/C [8]: 99.8%
viability, T/C [9]: 112%
viability, T/C [10]: 128%
viability, T/C [11]: 154%
viability, T/C [12]: 93.2%
viability, T/C [13]: 92.7%
viability, T/C [14]: 110%
viability, T/C [15]: 125%
viability, T/C [16]: 136%
viability, T/C [17]: 139%
viability, T/C [18]: 96.8%
viability, T/C [19]: 98.7%
viability, T/C [20]: 116%
viability, T/C [21]: 133%
viability, T/C [22]: 149%
viability, T/C [23]: 134%
viability, T/C [24]: 119%
viability, T/C [25]: 114%
viability, T/C [26]: 119%
viability, T/C [27]: 136%
viability, T/C [28]: 152%
viability, T/C [29]: 139%
viability, T/C [30]: 114%
viability, T/C [31]: 127%
viability, T/C [32]: 106%
viability, T/C [33]: 103%
viability, T/C [34]: 118%
viability, T/C [35]: 123%

IC50 [1]: > 10 µM
IC50 [2]: > 10 µM
IC50 [3]: > 10 µM
IC50 [4]: > 10 µM
IC50 [5]: > 10 µM
SMILES: CC(C)c1c(-c2ccccc2)nc2c(C#N)c[nH]n2c1=O + CC(CO)NC(=O)c1cc(-c2ccc(Cl)cc2)nn(-c2cnn(C)c2)c1=O
viability, T/C [6]: 101%
viability, T/C [7]: 96.5%
viability, T/C [8]: 101%
viability, T/C [9]: 111%
viability, T/C [10]: 93.9%
viability, T/C [11]: 102%
viability, T/C [12]: 93%
viability, T/C [13]: 97.9%
viability, T/C [14]: 99.2%
viability, T/C [15]: 93.2%
viability, T/C [16]: 90.4%
viability, T/C [17]: 102%
viability, T/C [18]: 94.7%
viability, T/C [19]: 90.3%
viability, T/C [20]: 97.5%
viability, T/C [21]: 90.2%
viability, T/C [22]: 102%
viability, T/C [23]: 101%
viability, T/C [24]: 90%
viability, T/C [25]: 99.5%
viability, T/C [26]: 99.9%
viability, T/C [27]: 96.6%
viability, T/C [28]: 98.3%
viability, T/C [29]: 95%
viability, T/C [30]: 98.9%
viability, T/C [31]: 101%
viability, T/C [32]: 99.7%
viability, T/C [33]: 95.7%
viability, T/C [34]: 95.1%
viability, T/C [35]: 93.8%

IC50 [1]: > 10 µM
IC50 [2]: > 10 µM
IC50 [3]: > 10 µM
IC50 [4]: > 10 µM
IC50 [5]: > 10 µM
SMILES: COc1cc(Nc2ncc3c(n2)-c2ccc(Cl)cc2C(c2c(F)cccc2OC)=NC3)ccc1C(=O)O + Cc1ccccc1N=Nc1ccc(NC(=O)c2ccnn2C)c(C)c1
viability, T/C [6]: 93.3%
viability, T/C [7]: 93%
viability, T/C [8]: 86.6%
viability, T/C [9]: 87.5%
viability, T/C [10]: 95.4%
viability, T/C [11]: 79.8%
viability, T/C [12]: 91.4%
viability, T/C [13]: 88.1%
viability, T/C [14]: 79.9%
viability, T/C [15]: 77.2%
viability, T/C [16]: 87.1%
viability, T/C [17]: 90%
viability, T/C [18]: 93%
viability, T/C [19]: 98%
viability, T/C [20]: 75.5%
viability, T/C [21]: 77%
viability, T/C [22]: 83.4%
viability, T/C [23]: 81.5%
viability, T/C [24]: 80.4%
viability, T/C [25]: 94.2%
viability, T/C [26]: 70.5%
viability, T/C [27]: 78.4%
viability, T/C [28]: 75.2%
viability, T/C [29]: 82%
viability, T/C [30]: 76.8%
viability, T/C [31]: 81.2%
viability, T/C [32]: 76.2%
viability, T/C [33]: 74.3%
viability, T/C [34]: 65.8%
viability, T/C [35]: 78.7%

IC50 (compound alone, run of 08/22/2022): > 10 µM
SMILES: Cc1ccccc1N=Nc1ccc(NC(=O)c2ccnn2C)c(C)c1
viability, T/C (compound 0.1 µM): 90.5% [middle of 20 runs]
viability, T/C (compound 0.316 µM): 90.9% [middle of 20 runs]
viability, T/C (compound 1 µM): 86.1% [middle of 20 runs]
